From patent US9375000B2, “Pesticidal arylpyrrolidines” (Bayer Intellectual Property GmbH, priority 2011, dated 2016) come the findings set out here.

SMILES strings stand for the structures. Values joined by “and” are separate entries in the source; they are usually repeats but may differ in a detail not shown here. Equal values may be shown once.

What all share (type): in vivo
Data set [1] relates to Two-Spotted Spider Mite (Tetranychus urticae). The data set can be described thus: Two-spotted spider mite (Tetranychus urticae) spray test on kidney bean. To be noted: after 7 days. The method in brief: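 Kidney bean plants at the two-leaf stage carried 50-100 adult mites and were sprayed one day later with compound in DMF/polyoxyethylene alkyl phenyl ether diluted in water. Ammonium salt and penetration enhancer at 1000 ppm were added if needed. Acaricidal activity (% mites killed) was scored after 7 days in a greenhouse.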

The test system of data set [2] is Cucurbit Leaf Beetle (Aulacophora femoralis). The data set can be described thus: Cucurbit leaf beetle (Aulacophora femoralis) cucumber leaf dip test. To be noted: after 7 days. In short, it runs like this:
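Cucumber leaves dipped in compound formulated with DMF and polyoxyethylene alkyl phenyl ether, diluted in water, with ammonium salt or ammonium salt plus penetration enhancer at 1000 ppm added if necessary; dried leaves placed on sterilized soil with five second-instar larvae. Kept at 25° C; larval mortality counted after 7 days.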

For data set [3], the system named is adult engorged female Boophilus microplus ticks. The data set can be described thus: Test against Boophilus microplus (dip). To be noted: dip, after 7 days. As for the experimental part:
(§1) Solvent: dimethyl sulfoxide
To produce a suitable preparation of active compound, 10 mg of active compound are dissolved in 0.5 ml solvent, and the concentrate is diluted with water to the desired concentration. Eight to ten adult engorged female Boophilus microplus ticks are placed in perforated plastic beakers and immersed in aqueous compound solution for one minute. Ticks are transferred to a filter paper in a plastic tray. Egg deposition of fertile eggs is monitored after. After 7 days mortality in % is determined. 100% means that all the ticks have been killed; 0% means that none of the ticks have been killed.

In a further data set the test system is Thrips palmi. The data set can be described thus: Thrips palmi spray test (THRIPL). To be noted: after 6 days. The method in brief: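 Cucumber seedlings sprayed with compound formulated in DMF/polyoxyethylene alkyl phenyl ether and diluted in water, ammonium salt ± penetration enhancer at 1000 ppm added if needed. About 100 T. palmi eggs attached, plants held caged at 100% humidity, 23 °C. Percent activity scored from feeding damage after 6 days, 100 = no damage, 0 = as untreated.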

The subject of data set [4] is Larvae of Spodoptera litura. The data set can be described thus: Larvae of Spodoptera litura, method using artificial feeds. To be noted: artificial feed, after 7 days. In short, it runs like this:
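Compound formulated in dimethylformamide with polyoxyethylene alkyl phenyl ether emulsifier, water-diluted and poured onto artificial diet. Five 3rd-instar Spodoptera litura larvae per cup, held at 25° C and 50-60% humidity. Mortality after 7 days expressed as pesticidal ratio.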

Data set [5] concerns Tobacco Cutworm (Spodoptera litura) Larvae. The data set can be described thus: Tobacco cutworm (Spodoptera litura) larvae, sweet potato leaf dip test. To be noted: dead larvae after 7 days. On the procedure:
(§2) Unless not mentioned otherwise, the test solutions were prepared as follows:
(§3) Solvent: 3 parts by weight Dimethylformamide
(§4) Emulsifier: 1 part by weight Polyoxyethylene alkyl phenyl ether
(§5) In order to make an appropriate formulation of an active compound, 1 part by weight of the active compound is mixed with the above mentioned amount of solvent and emulsifier and the mixture is diluted with water to a prescribed concentration. Ammonium salt or ammonium salt and penetration enhancer in a dosage of 1000 ppm are added to the desired concentration if necessary.
Leaves of sweet potato were immersed in the test solution at the appropriate concentration, and the leaves were dried in air. The leaves were then placed in a petri dish having a diameter of 9 cm, and ten Spodoptera litura at third instar larvae were released therein. The petri dishes were placed in a temperature-controlled chamber at 25° C. After 2 days and 4 days more sweet potato leaves were added. After 7 days, the number of dead larvae was counted to calculate the insecticidal activity. An insecticidal activity of 100% means that all larvae were killed, whereas an insecticidal activity of 0% means that no larva was killed. In the current test, the results of two petri dishes for each treatment were averaged.

The test system of a further data set is Musca domestica. The data set can be described thus: Test against Musca domestica. To be noted: application rate 100 ppm; after 2 days. On the procedure: as §1
To produce a suitable preparation of active compound, 10 mg of active compound are dissolved in 0.5 ml solvent, and the concentrate is diluted with water to the desired concentration. Prior to the assay, a piece of kitchen sponge is soaked with a mixture of sugar and compound solution and placed into a container. 10 adults (Musca domestica) are placed into the container and closed with a perforated lid. After 2 days mortality in % is determined. 100% means that all the flies have been killed; 0% means that none of the flies have been killed.

The next data set concerns Ctenocephalides felis. The data set can be described thus: Test against Ctenocephalides felis (CTECFE), blood feeding. To be noted: application rate 100 ppm in cattle blood; after 2 days. On the procedure:
as §1
To produce a suitable preparation of active compound, 10 mg of active compound are dissolved in 0.5 ml solvent, and the concentrate is diluted with cattle blood to the desired concentration. Approximately 20 adult unfed (Ctenocepahlides felis) are placed in flea chambers. The blood chamber, sealed with parafilm on the bottom, are filled with cattle blood supplied with compound solution and placed on top of the flea chamber, so that the fleas are able to suck the blood. The blood chamber is heated to 37° C. whereas the flea chamber is kept at room temperature.
After 2 days mortality in % is determined. 100% means that all the fleas have been killed; 0% means that none of the fleas have been killed.

Data set [6] concerns green peach aphids (Myzus persicae). The data set can be described thus: Myzus persicae spray test (MYZUPE). To be noted: active compound concentration 100 ppm; after 6 days. As for the experimental part:
as §2, §3, §4, §5
1 day before treatment, green peach aphids (Myzus persicae) are inoculated onto the testing plants, about 50 heads per leaf, 100 for 1 pot. A paper label is placed on each pot. Solutions are sprayed directly onto both insects and plants. After drying, the pots are placed in the greenhouse at 20° C.-25° C. After 6 days mortality in % is determined. An insecticidal activity of 100% means that all aphids were killed, whereas an insecticidal activity of 0% means that no aphid was killed.

Where [7] appears, read: active compound concentration 4 ppm.
Where [8] appears, read: active compound concentration 20 ppm.
Where [9] appears, read: active compound concentration 100 ppm.

Regarding `CCC(=O)NCc1ccc(N2CCC(c3cc(C(F)(F)F)cc(C(F)(F)F)c3)(C(F)(F)F)C2O)cc1C(F)(F)F` (mixture of isomers) [A1-57], in [1] (setting [7]), the acaricidal activity is given as 100%. Moreover, in data set [2] (setting [7]), the insecticidal activity is recorded as 100%. Also, the “activity (mortality)” value in data set [3] (application rate 100 ppm) turned out to be 90%. Further, in the data set on Thrips palmi (setting [8]), the “insecticidal activity (by feeding damage degree)” value was 100%. Besides, the “insecticidal activity (pesticidal ratio)” value in data set [4] (setting [7]) was found to be 100%.
As to `O=C(NCc1ccc(N2CCC(c3cc(Cl)cc(Cl)c3)(C(F)(F)F)C2O)cc1Br)C1CC1` (mixture of isomers) [A1-110], the insecticidal activity in data set [5] (setting [7]) and in [2] (setting [8]) was 100% in each case. The compound further displayed an acaricidal activity in [1] (setting [7]) of 100%. For the same compound, in data set [3] (application rate 100 ppm), the “activity (mortality)” value was determined as 90%. Also, the “insecticidal activity (by feeding damage degree)” value in the data set on Thrips palmi (setting [8]) was 98%.
For the compound `O=C(NCc1ccc(N2CCC(c3cc(Cl)c(Cl)c(Cl)c3)(C(F)(F)F)C2O)cc1I)C1CC1` (mixture of isomers) [A1-176], the acaricidal activity in [1] (setting [7]) and in data set [1] (setting [8]) was 100% in each case. This compound came in with an insecticidal activity in data set [2] (setting [8]) of 100%. Also, in the data set on Thrips palmi (setting [8]), the “insecticidal activity (by feeding damage degree)” value was 90%. Further, the “insecticidal activity (pesticidal ratio)” value in [4] (setting [7]) and in [4] (setting [8]) was 100% throughout. In addition, the “activity (mortality)” value in the data set on Musca domestica was determined as 80%.
Compound `CS(=O)(=O)CC(=O)NCc1ccc(N2CCC(c3cc(C(F)(F)F)cc(C(F)(F)F)c3)(C(F)(F)F)C2O)nc1Br` (mixture of isomers) [A3-165] came in with an acaricidal activity in data set [1] (setting [7]) of 90%. For the same compound, the insecticidal activity in [2] (setting [7]) and in [2] (setting [8]) was 100% each time. The “activity (mortality)” value in [3] (application rate 100 ppm) amounted to 90%. Also, the “insecticidal activity (pesticidal ratio)” value in data set [4] (setting [7]) and in [4] (setting [8]) was 100% in each case.
In the case of `O=C(NCc1ccc(N2CCC(c3cc(F)cc(Cl)c3)(C(F)(F)F)C2O)nc1C(F)(F)F)C1CC1` (mixture of isomers) [A3-170], the insecticidal activity in data set [5] (setting [7]) and in data set [2] (setting [8]) was 100% each time. Moreover, the acaricidal activity in data set [1] (setting [8]) is on record as 100%. Also, in the data set with Musca domestica, the “activity (mortality)” value was 90%.
`C[S+]([O-])CC(=O)NCc1ccc(N2CCC(c3cc(C(F)(F)F)cc(C(F)(F)F)c3)(C(F)(F)F)C2O)cc1Cl` (stereo not drawn) [A1-32] gave an acaricidal activity in data set [1] (setting [8]) of 100%. Moreover, in data set [2] (setting [8]), the insecticidal activity is 100%. Also, in data set [3] (application rate 20 ppm), the “activity (mortality)” value came out at 95%. For the same compound, the “insecticidal activity (pesticidal ratio)” value in [4] (setting [8]) was 100%.
On to `O=C(NCc1ccc(N2CCC(c3cc(Br)cc(Br)c3)(C(F)(F)F)C2O)cc1C(F)(F)F)C1CC1` (stereo not drawn) [A1-253], for which the acaricidal activity in [1] (setting [7]) and in data set [1] (setting [8]) was 100% each time. Further, the insecticidal activity in data set [2] (setting [7]) and in [2] (setting [8]) was 100% each time. For the same compound, the “insecticidal activity (by feeding damage degree)” value in the data set with Thrips palmi (setting [8]) was found to be 90%. Further, the “insecticidal activity (pesticidal ratio)” value in data set [4] (setting [7]) and in data set [4] (setting [8]) was 100% throughout. The “activity (mortality)” value in the data set on Musca domestica amounted to 90%.
Turning to `CC(=O)NCc1ccc(N2CCC(c3cc(Cl)c(F)c(Cl)c3F)(C(F)(F)F)C2O)cc1C(F)(F)F` (stereo not drawn) [A1-282], the insecticidal activity in [5] (setting [7]) and in data set [2] (setting [8]) was 100% each time. This compound came in with an acaricidal activity in data set [1] (setting [7]) of 100%. Moreover, the “activity (mortality)” value in data set [3] (application rate 100 ppm) is 95%.
Take `CCCC(=O)NCc1ccc(N2CCC(c3cc(Cl)c(Cl)c(Cl)c3)(C(F)(F)F)C2O)nc1C(F)(F)F` (stereo not drawn) [A3-14]: the acaricidal activity in data set [1] (setting [7]) and in data set [1] (setting [8]) was 100% throughout. The “activity (mortality)” value in the data set with Ctenocephalides felis is on record as 95%. Besides, the insecticidal activity in data set [2] (setting [7]) and in [2] (setting [8]) was 100% in each case. In addition, the “insecticidal activity (pesticidal ratio)” value in data set [4] (setting [7]) and in [4] (setting [8]) was 100% each time.
Take `CCC(=O)NCc1ccc(N2CCC(c3cc(Cl)c(Cl)c(Cl)c3)(C(F)(F)F)C2O)nc1Br` (stereo not drawn) [A3-112]: the acaricidal activity in data set [1] (setting [8]) came to 100%. In [2] (setting [8]), this compound registered an insecticidal activity of 100%. For the same compound, the “insecticidal activity (pesticidal ratio)” value in [4] (setting [8]) stood at 100%. The “activity (mortality)” value in the data set on Musca domestica is recorded as 90%.
For the compound `CCC(=O)NCc1cnc(N2CCC(c3cc(Cl)c(Cl)c(Cl)c3)(C(F)(F)F)C2O)nc1C(F)(F)F` (stereo not drawn) [A4-13], in data set [6], the “insecticidal activity (mortality)” value came to 90%. For the same compound, in data set [1] (setting [8]), the acaricidal activity came out at 100%. The “insecticidal activity (by feeding damage degree)” value with Thrips palmi (setting [8]) and with Thrips palmi (setting [9]) was 98% in each case. Besides, in data set [4] (setting [8]), the “insecticidal activity (pesticidal ratio)” value is 100%.
For `CCC(=O)NCc1cnc(N2CCC(c3cc(Cl)c(Cl)c(Cl)c3)(C(F)(F)F)C2O)cc1C(F)(F)F` (stereo not drawn) [A5-13], the insecticidal activity in [5] (setting [7]) and in [2] (setting [8]) was 100% each time. Besides, the acaricidal activity in data set [1] (setting [8]) was 100%; in [1] (setting [9]), 98%. For the same compound, in the data set with Thrips palmi (setting [9]), the “insecticidal activity (by feeding damage degree)” value was 100% and 90%. Also, in [4] (setting [7]), the “insecticidal activity (pesticidal ratio)” value turned out to be 100%.
Take `O=C(NCc1cnc(N2CCC(c3cc(Cl)c(Cl)c(Cl)c3)(C(F)(F)F)C2O)cc1C(F)(F)F)C1CC1` (stereo not drawn) [A5-16]: the insecticidal activity in data set [5] (setting [7]) and in data set [2] (setting [8]) was 100% throughout. The compound further returned an acaricidal activity in data set [1] (setting [8]) of 100%. The “insecticidal activity (by feeding damage degree)” value with Thrips palmi (setting [9]) was 100%.
As to `O=C(CC(F)(F)F)NCc1cnc(N2CCC(c3cc(Cl)c(Cl)c(Cl)c3)(C(F)(F)F)C2O)cc1C(F)(F)F` (stereo not drawn) [A5-18], the insecticidal activity in [5] (setting [7]) and in [2] (setting [8]) was 100% each time. Moreover, the acaricidal activity in data set [1] (setting [8]) was found to be 100%. Also, in the data set with Ctenocephalides felis, the “activity (mortality)” value is given as 90%. In addition, the “insecticidal activity (by feeding damage degree)” value with Thrips palmi (setting [9]) is 100%.
Consider `CS(=O)(=O)CC(=O)NCc1cnc(N2CCC(c3cc(Cl)c(Cl)c(Cl)c3)(C(F)(F)F)C2O)cc1C(F)(F)F` (stereo not drawn) [A5-22], for which the insecticidal activity in data set [5] (setting [7]) and in data set [2] (setting [8]) was 100% each time. The same compound yielded an acaricidal activity in data set [1] (setting [8]) of 100%. Moreover, in the data set on Thrips palmi (setting [9]), the “insecticidal activity (by feeding damage degree)” value came to 98%.
Compound `O=C(NCc1ccc(N2CC(c3cc(C(F)(F)F)cc(C(F)(F)F)c3)(C(F)(F)F)CC2=O)nc1C(F)(F)F)C1CC1` (stereo not drawn) [C3-27] displayed an insecticidal activity in [5] (setting [8]) of 100%. The “insecticidal activity (pesticidal ratio)” value in [4] (setting [8]) was 100%. Besides, in the data set with Musca domestica, the “activity (mortality)” value came out at 90%.
